Measurements as given in paper PMC6847200 (2019).
One block for each compound: values may come before it.

Columns and labels:
Assay in all cases: ITC
Conditions in all cases: 100 mM KCl, 20 mM MgCl2; 50 mM K-HEPES pH 7.5, 30 °C; apparent
[1] = test system: env1 (RNA, riboswitch) GGGUGUAAUCUCCAAAAUAUGGUUGGGGAGCCUCCACCAGUGAACCGUAAAAUCGCUGUCACCACCC
[2] = test system: xpt + U75C76 (RNA, riboswitch) GGACAUAUAAUCGCGUGGAUAUGGCACGCAAGUUUCUACCGGGCACCGUAAAUGUCCGUCACUAUGUCC
[3] = test system: env23 (RNA, riboswitch) GGGUGUAAUUCGGGGGAUUGGCCCCGGAGUAUCCACGACCGGACCAUAAUCCGGUGCAUCCACCC
[4] = test system: env30 (RNA, riboswitch) GGACGUAGCCUGGGGGAUUGGCCCCAGGGCAUCCACGAGCUGGCCGCAACUAGCUGAGACCGUCC
[5] = test system: env6 (RNA, riboswitch) GGACGUAAUCCUCCGAACAGGCGGGGGAGCAUCCACCGCCGGGCCUUAACCCGGUGUAACCGUCC
[6] = test system: env1 U75A (RNA, riboswitch) GGGUGUAAUCUCCAAAAUAUGGUUGGGGAGCCUCCACCAGUGAACCGUAAAAUCGCUGACACCACCC
[7] = test system: env1 Δ(U75,C76) (RNA, riboswitch) GGGUGUAAUCUCCAAAAUAUGGUUGGGGAGCCUCCACCAGUGAACCGUAAAAUCGCUGACCACCC
[8] = test system: env1 A77U (RNA, riboswitch) GGGUGUAAUCUCCAAAAUAUGGUUGGGGAGCCUCCACCAGUGAACCGUAAAAUCGCUGUCUCCACCC
[9] = test system: env1 C78A (RNA, riboswitch) GGGUGUAAUCUCCAAAAUAUGGUUGGGGAGCCUCCACCAGUGAACCGUAAAAUCGCUGUCAACACCC
[10] = test system: env1 C51U (RNA, riboswitch) GGGUGUAAUCUCCAAAAUAUGGUUGGGGAGCCUCUACCAGUGAACCGUAAAAUCGCUGUCACCACCC
[11] = test system: env1 G21A,C79U (RNA, riboswitch) GGGUAUAAUCUCCAAAAUAUGGUUGGGGAGCCUCCACCAGUGAACCGUAAAAUCGCUGUCACUACCC
[12] = test system: env1 C47,48U (RNA, riboswitch) GGGUGUAAUCUCCAAAAUAUGGUUGGGGAGUUUCCACCAGUGAACCGUAAAAUCGCUGUCACCACCC
[13] = test system: env1 C48A (RNA, riboswitch) GGGUGUAAUCUCCAAAAUAUGGUUGGGGAGCAUCCACCAGUGAACCGUAAAAUCGCUGUCACCACCC
[14] = test system: xpt U51C + U75C76 (RNA, riboswitch) GGACAUAUAAUCGCGUGGAUAUGGCACGCAAGUUUCCACCGGGCACCGUAAAUGUCCGUCACUAUGUCC

SMILES: Nc1nc2c(ncn2[C@@H]2O[C@H](CO)[C@@H](O)[C@H]2O)c(=O)[nH]1
KD,rG [1]: 89 ± 10 nM
KD,rG [3]: 51 000 ± 4000 nM
KD,rG [4]: 36 000 ± 1000 nM

SMILES: Nc1nc2c(ncn2[C@H]2C[C@H](O)[C@@H](CO)O2)c(=O)[nH]1
KD,2′-dG [1]: 34 ± 1 nM
KD,2′-dG [5]: 88 ± 3 nM
KD,2′-dG [3]: 290 ± 50 nM
KD,2′-dG [4]: 2400 ± 900 nM
KD,dG [6]: 1600 ± 300 nM
KD,dG [7]: 240 ± 50 nM
KD,dG [8]: 250 ± 10 nM
KD,dG [9]: 41 000 ± 9000 nM
KD,dG [10]: 620 ± 180 nM
KD,dG [11]: 570 ± 30 nM
KD,dG [12]: 110 ± 10 nM
KD,dG [13]: 7.1 ± 1.4 nM
KD,app [2]: 8100 ± 600 nM
KD,app [14]: 1600 ± 100 nM

Other lines, results leading:

KD [1]: 560 ± 10 nM
SMILES: Nc1nc2c(ncn2COCCO)c(=O)[nH]1

KD,app [2]: 21000 ± 2000 nM
SMILES: O=c1[nH]cnc2nc[nH]c12

KD [1]: 2000 ± 100 nM
SMILES: Nc1nc2c(ncn2CCC(CO)CO)c(=O)[nH]1
